# Measurements published in ChEMBL document CHEMBL1201862, “PubChem BioAssay data set” (2004).
# Active and inactive are the calls of the source.
# What was measured:
# Cytochrome P450 3A4 = Cytochrome P450 3A4 (Homo sapiens, UniProt P08684);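 further: CYP3A4 tested as one member of a cytochrome P450 panel screen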
# Cytochrome P450 2C9 = Cytochrome P450 2C9 (Homo sapiens, UniProt P11712)
# [1] = target: T1, Heat shock factor protein 1 (Mus musculus, UniProt P38532); experiment: inhibition of MG132-induced HSE-luciferase signal, confirmation, cell-based, NIH3T3, luminescence, dose retest (AID 2382); assay type: functional;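 further: NIH3T3 fibroblasts with HSF1-driven luciferase reporter stressed by proteasome inhibitor MG132; luminescence from HSF1-driven luciferase expression after 8 hours of MG132 stress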
# T1 sequence (P38532 whole entry): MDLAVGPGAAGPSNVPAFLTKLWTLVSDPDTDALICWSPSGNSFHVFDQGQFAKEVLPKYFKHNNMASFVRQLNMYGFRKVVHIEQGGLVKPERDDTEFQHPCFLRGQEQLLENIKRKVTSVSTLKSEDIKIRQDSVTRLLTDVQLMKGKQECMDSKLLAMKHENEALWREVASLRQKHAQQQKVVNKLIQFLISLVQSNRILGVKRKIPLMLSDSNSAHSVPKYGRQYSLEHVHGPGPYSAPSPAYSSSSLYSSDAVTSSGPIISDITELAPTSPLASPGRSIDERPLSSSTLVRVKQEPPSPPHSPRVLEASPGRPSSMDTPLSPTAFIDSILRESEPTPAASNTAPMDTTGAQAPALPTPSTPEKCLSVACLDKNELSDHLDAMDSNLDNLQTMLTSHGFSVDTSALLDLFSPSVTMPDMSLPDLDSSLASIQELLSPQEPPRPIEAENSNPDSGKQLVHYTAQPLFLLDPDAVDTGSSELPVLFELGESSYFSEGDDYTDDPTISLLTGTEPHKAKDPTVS
# [2] = target: T2, Rac GTPase-activating protein 1 (Homo sapiens, UniProt Q9H0H5); experiment: MgcRacGAP GTPase-activating activity inhibitors, confirmation, biochemical, ADP Hunter fluorescence, primary and confirmatory (AID 624330); assay type: functional
# T2 sequence (Q9H0H5 whole entry): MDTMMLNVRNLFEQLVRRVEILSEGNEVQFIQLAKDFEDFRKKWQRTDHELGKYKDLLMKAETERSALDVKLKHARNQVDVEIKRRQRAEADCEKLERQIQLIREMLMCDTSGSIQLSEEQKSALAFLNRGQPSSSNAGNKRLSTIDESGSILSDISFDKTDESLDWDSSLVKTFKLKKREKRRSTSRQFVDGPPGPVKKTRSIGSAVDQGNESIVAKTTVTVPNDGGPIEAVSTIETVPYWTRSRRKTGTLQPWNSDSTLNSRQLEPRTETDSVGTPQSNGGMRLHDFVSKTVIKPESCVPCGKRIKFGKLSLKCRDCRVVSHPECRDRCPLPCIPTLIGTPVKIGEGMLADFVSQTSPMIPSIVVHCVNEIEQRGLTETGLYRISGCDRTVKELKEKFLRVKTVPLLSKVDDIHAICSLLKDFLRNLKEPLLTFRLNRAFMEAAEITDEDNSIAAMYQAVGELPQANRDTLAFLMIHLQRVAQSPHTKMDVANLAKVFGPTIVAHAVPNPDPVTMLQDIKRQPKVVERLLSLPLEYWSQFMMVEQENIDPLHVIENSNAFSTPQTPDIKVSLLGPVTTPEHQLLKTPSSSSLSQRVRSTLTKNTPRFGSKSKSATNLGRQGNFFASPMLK
# [3] = target: T1, Heat shock factor protein 1; experiment: HSF1 potentiators in luciferase reporter cells, confirmation, cell-based, NIH3T3, luminescence, dose retest (AID 435004); assay type: functional;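 further: stress induced by proteasome inhibitor MG132 added 30 min after compound; luciferase reporter driven by HSF1 response element in NIH3T3 cells; actives raise luminescence as potentiators of the MG132 stress response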
# [4] = target: T3, Corticotropin-releasing factor receptor 2/Corticotropin-releasing factor-binding protein (Homo sapiens, UniProt P24387+Q13324); experiment: Dose Response confirmation of uHTS hits for small molecule antagonists of the CRF-binding protein and CRF-R2 receptor complex.; assay type: functional; conditions: read-out: IC50_Mean
# T3 sequence (Q13324 whole entry): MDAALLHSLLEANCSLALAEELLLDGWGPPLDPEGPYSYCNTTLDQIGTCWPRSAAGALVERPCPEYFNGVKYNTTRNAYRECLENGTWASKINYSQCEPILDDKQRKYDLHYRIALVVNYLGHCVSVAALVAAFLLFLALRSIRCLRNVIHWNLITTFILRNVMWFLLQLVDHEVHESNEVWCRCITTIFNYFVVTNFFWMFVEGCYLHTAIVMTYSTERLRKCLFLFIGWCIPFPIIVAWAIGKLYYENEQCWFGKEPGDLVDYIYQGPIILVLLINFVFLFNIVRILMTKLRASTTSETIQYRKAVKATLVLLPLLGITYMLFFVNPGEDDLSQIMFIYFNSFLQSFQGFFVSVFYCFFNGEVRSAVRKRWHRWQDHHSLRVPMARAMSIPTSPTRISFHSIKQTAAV
# T3 sequence (P24387 whole entry): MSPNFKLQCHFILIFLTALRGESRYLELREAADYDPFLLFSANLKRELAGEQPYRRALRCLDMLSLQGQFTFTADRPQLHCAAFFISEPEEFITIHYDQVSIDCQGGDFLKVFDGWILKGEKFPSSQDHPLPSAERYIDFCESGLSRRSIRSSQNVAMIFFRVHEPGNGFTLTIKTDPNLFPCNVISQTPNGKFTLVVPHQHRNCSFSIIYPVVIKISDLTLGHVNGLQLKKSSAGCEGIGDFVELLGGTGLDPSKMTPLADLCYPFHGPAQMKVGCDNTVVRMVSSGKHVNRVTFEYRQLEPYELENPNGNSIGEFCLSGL
# [5] = target: T3, Corticotropin-releasing factor receptor 2/Corticotropin-releasing factor-binding protein; experiment: activators of CRF receptor 2 with binding protein – uHTS hits, confirmation (AID 602473); assay type: functional; conditions: read-out: EC50_Mean
# Cytochrome P450 2C19 = Cytochrome P450 2C19 (Homo sapiens, UniProt P33261); experiment: Cytochrome panel assay with activity outcomes. Panel member name: p450-cyp2c19 Compounds with AC50 equal or less than 10 uM are considered active; assay type: functional; conditions: read-out: AC50
# Cytochrome P450 2C19, sequence (P33261 whole entry): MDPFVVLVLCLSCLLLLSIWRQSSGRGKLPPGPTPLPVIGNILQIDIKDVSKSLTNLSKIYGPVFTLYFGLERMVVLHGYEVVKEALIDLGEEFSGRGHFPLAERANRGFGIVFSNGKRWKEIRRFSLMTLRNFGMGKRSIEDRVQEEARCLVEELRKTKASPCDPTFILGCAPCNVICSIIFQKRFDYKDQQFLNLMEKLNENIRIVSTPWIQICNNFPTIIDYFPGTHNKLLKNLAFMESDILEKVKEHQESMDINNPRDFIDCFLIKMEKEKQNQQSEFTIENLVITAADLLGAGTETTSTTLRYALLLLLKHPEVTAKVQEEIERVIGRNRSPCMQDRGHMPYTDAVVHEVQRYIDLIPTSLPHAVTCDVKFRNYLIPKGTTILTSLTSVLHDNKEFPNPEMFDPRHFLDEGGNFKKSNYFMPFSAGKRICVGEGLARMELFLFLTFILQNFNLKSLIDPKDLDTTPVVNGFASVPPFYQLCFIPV
# [6] = Luminescence Cell-Based Dose Confirmation HTS to Identify Activators of 5'UTR Stem-Loop Driven Alpha-Synuclein mRNA Translation in H4 Neuroglioblastoma Cells. [Related pubchem assays: 1829 (Project Summary), 1814 (Primary HTS)]; assay type: functional
# [7] = Luminescence Cell-Based Dose Response HTS to Identify Activators of Luciferase Translation or Activity in H4 […] Cells. [Related pubchem assays: 1829 (Project Summary), 1814 (Primary HTS)]; assay type: functional
# H4 = experiment: Luminescence Cell-Based Dose Response HTS to Identify Activators of 5'UTR Stem-Loop Driven Prion Protein mRNA Translation in H4 Neuroglioblastoma Cells. [Related pubchem assays: 1829 (Project Summary), 1814 (Primary HTS)]; assay type: functional; conditions: Homo sapiens
# Cytochrome P450 1A2 = target: T4, Cytochrome P450 1A2 (Homo sapiens, UniProt P05177);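 further: PubChem cytochrome P450 panel assay, CYP1A2 panel member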
# T4 sequence (P05177 whole entry): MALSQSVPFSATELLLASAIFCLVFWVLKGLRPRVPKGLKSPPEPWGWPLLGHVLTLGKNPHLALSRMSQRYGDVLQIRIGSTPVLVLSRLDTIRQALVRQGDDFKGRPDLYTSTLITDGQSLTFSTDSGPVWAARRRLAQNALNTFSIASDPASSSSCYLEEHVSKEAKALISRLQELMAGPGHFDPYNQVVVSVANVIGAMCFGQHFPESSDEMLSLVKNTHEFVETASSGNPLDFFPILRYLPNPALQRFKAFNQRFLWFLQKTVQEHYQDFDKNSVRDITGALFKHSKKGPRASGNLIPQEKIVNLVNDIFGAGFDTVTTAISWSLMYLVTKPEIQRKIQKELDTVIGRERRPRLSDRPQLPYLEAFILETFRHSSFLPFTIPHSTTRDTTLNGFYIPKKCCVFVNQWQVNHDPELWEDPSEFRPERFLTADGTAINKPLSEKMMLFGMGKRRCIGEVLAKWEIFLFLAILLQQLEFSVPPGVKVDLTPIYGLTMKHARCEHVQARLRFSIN
# Cytochrome P450 3A4, sequence (P08684 whole entry): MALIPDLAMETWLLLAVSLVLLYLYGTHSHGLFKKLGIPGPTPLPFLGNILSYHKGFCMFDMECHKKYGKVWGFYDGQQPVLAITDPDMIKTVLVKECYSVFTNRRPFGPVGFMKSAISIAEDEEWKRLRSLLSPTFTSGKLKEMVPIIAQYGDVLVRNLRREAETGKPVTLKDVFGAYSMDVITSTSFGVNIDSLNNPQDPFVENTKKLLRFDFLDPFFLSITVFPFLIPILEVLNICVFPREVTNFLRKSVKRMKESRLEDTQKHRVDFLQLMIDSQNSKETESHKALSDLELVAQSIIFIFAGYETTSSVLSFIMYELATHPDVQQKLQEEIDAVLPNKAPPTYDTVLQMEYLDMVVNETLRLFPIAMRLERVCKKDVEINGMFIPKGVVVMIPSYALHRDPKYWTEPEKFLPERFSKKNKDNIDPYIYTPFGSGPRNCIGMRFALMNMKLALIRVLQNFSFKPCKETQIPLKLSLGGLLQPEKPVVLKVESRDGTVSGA
# Cytochrome P450 2C9, sequence (P11712 whole entry): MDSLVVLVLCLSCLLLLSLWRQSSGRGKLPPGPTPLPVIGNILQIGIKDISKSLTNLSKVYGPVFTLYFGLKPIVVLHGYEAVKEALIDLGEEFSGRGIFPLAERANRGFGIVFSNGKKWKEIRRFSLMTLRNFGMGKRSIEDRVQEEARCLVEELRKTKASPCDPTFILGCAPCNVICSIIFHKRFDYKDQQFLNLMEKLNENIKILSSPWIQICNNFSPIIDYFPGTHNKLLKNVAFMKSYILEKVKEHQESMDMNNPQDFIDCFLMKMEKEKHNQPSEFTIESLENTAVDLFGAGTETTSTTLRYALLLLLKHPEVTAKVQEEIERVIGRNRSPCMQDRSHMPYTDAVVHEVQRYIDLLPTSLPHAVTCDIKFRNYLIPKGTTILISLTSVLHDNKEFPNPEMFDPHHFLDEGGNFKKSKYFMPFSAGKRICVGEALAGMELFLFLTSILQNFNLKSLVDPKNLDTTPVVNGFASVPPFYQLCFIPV
smiles,measurement,setting,value
COc1ccc(CCn2c3c(c(=O)[nH]c2=O)C(NC(=O)c2cccs2)(C(F)(F)F)C(=O)N3)cc1OC (stereo not drawn),AC50,Cytochrome P450 3A4,14.1 µM (inconclusive)
same,AC50,Cytochrome P450 2C9,8.91 µM (inconclusive)
CN(C)c1ccc(C2Nc3ccccc3C(=O)N2CCCN2CCOCC2)cc1 (stereo not drawn),EC50,[1],2.02 µM (active)
COC(=O)c1ccc(N2CCN(C(C)=O)CC2)c(NC(=O)COc2ccccc2C)c1,EC50,[1],> 195 µM (not active)
Fc1ccc(CNCc2ccccc2Cl)cc1,EC50,[1],> 195 µM (not active)
same,IC50,[2],213 µM (active)
CC(C)(C)CC(C)(C)c1cc(O)c(O)c(CN2CCCCC2)c1,AC50,Cytochrome P450 3A4,3.98 µM (inconclusive)
same,AC50,Cytochrome P450 2C9,7.94 µM (inconclusive)
CCOC(=O)CNC(=O)CSc1nnc(C)c(O)n1,EC50,[1],> 195 µM (not active)
C=CCSc1nc2ccccc2c(=O)n1Cc1ccco1,AC50,Cytochrome P450 2C9,3.98 µM (inconclusive)
CCN(C(=O)Cn1c([N+](=O)[O-])cnc1C)c1ccccc1,EC50,[1],> 195 µM (not active)
CCOc1ccc(CN(CCCl)CCCl)cc1C(=O)OC,EC50,[3],12.6 µM (active)
CCOc1ccc(-n2cc(C(=O)NCc3ccco3)c3cc(OC)c(OC)cc3c2=O)cc1,AC50,Cytochrome P450 3A4,22.4 µM (inconclusive)
same,AC50,Cytochrome P450 2C9,4.47 µM (inconclusive)
CC(C)c1ccccc1-n1c(S)nnc1-c1cccnc1,EC50,[1],> 195 µM (not active)
COc1ccc(N2CCN(CCCNC(=O)C(=O)c3c(C)[nH]c4ccccc34)CC2)cc1,IC50,[4],> 47.1 µM (inactive)
same,EC50,[5],> 53 µM (inactive)
Cc1noc(C)c1COC(=O)c1cccc(S(=O)(=O)N2c3ccccc3CC2C)c1 (stereo not drawn),IC50,[4],> 47.1 µM (inactive)
same,EC50,[5],> 53 µM (inactive)
COc1ccc(N2CCN(CC(O)COCCOc3ccc(Br)cc3)CC2)cc1 (stereo not drawn),EC50,[1],> 195 µM (not active)
O=C(Nc1ccccc1C(=O)N1CCOCC1)c1ccncc1,IC50,[4],> 47.1 µM (inactive)
same,EC50,[5],> 53 µM (inactive)
C=CCN=C(S)Nc1ccc2nc(C)c(C)nc2c1,AC50,Cytochrome P450 2C9,12.6 µM (inconclusive)
COC(=O)C1=CN(Cc2ccc(OC)c(OC)c2)C=C(C(=O)OC)C1c1ccccc1F,EC50,[1],> 195 µM (not active)
Cc1nc2cnc(N3CCOCC3)nc2n(Cc2ccc(F)cc2)c1=O,AC50,Cytochrome P450 2C9,31.6 µM (inconclusive)
CCCCN(CC)S(=O)(=O)N1CCC(C(=O)NCCCN2CCOCC2)CC1,AC50,Cytochrome P450 2C19,1 µM (inconclusive)
same,AC50,Cytochrome P450 2C9,25.1 µM (inconclusive)
COc1ccc(NC(=O)C2c3cc(OC)c(OC)cc3C(=O)N(C)C2c2cccnc2)cc1OC (stereo not drawn),AC50,Cytochrome P450 2C9,17.8 µM (inconclusive)
CC(C)N1C(=O)CN(C2CCCCCC2)C(=O)C1c1ccccc1F (stereo not drawn),EC50,[6],10.8 µM (active)
same,EC50,[7],20.9 µM (active)
same,EC50,H4,21 µM (active)
same,EC50,[1],77.6 µM (active)
O=C(CN1CCCCC1)Nc1cccc2c1OCO2,EC50,[1],> 195 µM (not active)
Cc1ccc(F)c(NC(=O)c2ccc(Cn3cc(Cl)cn3)cc2)c1,EC50,[1],> 195 µM (not active)
Cc1cc(/C=C(/C#N)C(=O)O)c(C)n1-c1cccc2ccccc12,IC50,[4],6.86 µM (active)
same,EC50,[5],> 53 µM (inactive)
Cc1cccc(C)c1NC(=O)c1sccc1SCc1cccc(C(F)(F)F)c1,IC50,[4],> 47.1 µM (inactive)
same,EC50,[5],> 53 µM (inactive)
Cc1ccc(OCC(=O)NC(=S)Nc2ccccn2)c(Br)c1,EC50,[1],< 0.16 µM (active)
CC1C(=O)C(C)C(c2ccco2)NC1c1ccco1 (stereo not drawn),EC50,[1],> 195 µM (not active)
O=C(CSc1ccc(-c2ccncc2)nn1)N1CCN(c2ccccc2)CC1,IC50,[4],> 47.1 µM (inactive)
same,EC50,[5],> 53 µM (inactive)
COc1ccc(-c2cn(-c3ccccc3)nc2CO)cc1,EC50,[1],> 195 µM (not active)
O=C(OCc1ccc2c(c1)OCO2)c1ccc(S(=O)(=O)N2CCCC2)cc1,IC50,[4],> 47.1 µM (inactive)
same,EC50,[5],> 53 µM (inactive)
CCC[C@@H]1C[C@@]1(CCC)C(NC(=O)OCc1ccccc1)c1ccc(-c2ccccc2)cc1 (stereo partly drawn),AC50,Cytochrome P450 3A4,3.98 µM (inconclusive)
same,AC50,Cytochrome P450 2C9,3.98 µM (inconclusive)
COC(=O)[C@@]1(Cc2ccc(OC)cc2)[C@H]2c3cc(C(=O)N(C)C)n(CCSCCO)c3C[C@H]2CN1C(=O)c1ccccc1,AC50,Cytochrome P450 2C19,20 µM (inconclusive)
same,AC50,Cytochrome P450 2C9,12.6 µM (inconclusive)
COC(=O)c1ccc(NC(=O)c2ccccc2)o1,AC50,Cytochrome P450 1A2,2.82 µM (inconclusive)
same,AC50,Cytochrome P450 2C9,17.8 µM (inconclusive)
COc1ccc(Nc2cc(C(=O)NCCCN3CCN(C)CC3)c3ccccc3n2)cc1,AC50,Cytochrome P450 1A2,10 µM (inconclusive)
same,AC50,Cytochrome P450 2C9,14.1 µM (inconclusive)
COc1ccc(N(CC(=O)NCCSc2ccccn2)S(=O)(=O)c2ccc(C)cc2)cc1OC,IC50,[4],> 47.1 µM (inactive)
same,EC50,[5],> 53 µM (inactive)
COc1ccc(C(=O)NCCS(=O)(=O)N(C)C2CCCCC2)cc1,IC50,[4],> 47.1 µM (inactive)
same,EC50,[5],> 53 µM (inactive)
CCOc1ccccc1NC(=O)C1=C(C)NC(=O)NC1c1cccc(OC)c1OC (stereo not drawn),AC50,Cytochrome P450 2C9,25.1 µM (inconclusive)
COCC(=O)N(C)[C@H]1C[C@H]2c3cc(N4CCN(C)CC4)ccc3CCN2C(=O)[C@H]1[C@H](C)O,IC50,[4],> 47.1 µM (inactive)
same,EC50,[5],> 53 µM (inactive)
O=C(COc1ccccc1)NCc1ccco1,IC50,[4],> 47.1 µM (inactive)
same,EC50,[5],> 53 µM (inactive)
COc1cccc(/N=C/C2=C(O)OC3(CCCCC3)OC2=O)c1,EC50,[3],> 260 µM (inconclusive)
